Measured values from patent US20140335050A1, “METHODS, COMPOSITIONS, AND KITS FOR THE TREATMENT OF CANCER” (The General Hospital Corporation, priority 2011, published 2014).
Entries after “also recorded” stand apart in the source; their conditions may differ.

Tests used:
MU89 melanoma cell line = assay: Antibody staining and flow cytometry (intracellular Melan-A/MART-1, gp100, TRP-2; surface MHC Class I/II); format: cell-based, human
A375 melanoma cell line = assay: Antibody staining and flow cytometry (intracellular Melan-A/MART-1, gp100, TRP-2; surface MHC Class I); format: cell-based, human
Experimental: (§1) Cells were fixed with 1% formaldehyde, permeabilized with 0.1% saponin, stained with monoclonal antibodies to melanocyte antigens. Antibodies were obtained with specificity for: MART-1 from Vector Labs (Burlingame, Calif.); gp100 HMB45 from DakoCytomation (Carpinteria, Calif.) and then visualized with goat anti-mouse FITC-conjugated secondary antibody from Invitrogen (Fredrick, Md.). The level of EGFP was determined by flow cytometry of unfixed cells that were washed and resuspended in 1×PBS.
(§2) Cells were plated at a density of 1×10^5 in 1 ml of medium in a 24-well plate and cultured for varying times as indicated in results. […] After incubation, cells were collected by trypsinization and then evaluated by flow cytometry.
(§3) Intracellular staining and flow cytometric analyses of cytoplasmic Melan-A/MART-1, and gp100 expression were performed as described previously. Cells were fixed with 1% formaldehyde, permeabilized with 0.1% saponin, stained with monoclonal antibodies to melanocyte antigens. Antibodies were obtained with specificity for: Melan-A/MART-1 from Vector Labs (Burlingame, Calif.); gp100/HMB45 from DakoCytomation (Carpinteria, Calif.) and then visualized with goat anti-mouse FITC-conjugated secondary antibody from Invitrogen (Frederick, Md.). The level of EGFP was determined by flow cytometry of unfixed cells washed and resuspended in 1×PBS. Surface staining of MHC Class I was carried out using the antibody W6/32 on cells harvested with Cell Stripper from MediaTech Inc. (Manassas, Va.) and carried out on ice.
(§4) Cell were seeded at 1×10^6 cells in a T25 flask with 10 ml of media for the 4 day IFN-beta pre-treatments. Cells were then harvested and plated in 24 well plate at 1×10^5 cells per well in 1 ml of media for 3 day treatments.
(§5) For surface staining of HLA Class I and II antigens, cells were harvested using CellStripper™ from Mediatech (Manassas, Va.). All staining steps were performed on ice. Following a first incubation with antibody to Class I (W6/32) or Class II (L243) for 30 minutes. Stained cells were washed twice with cold PBS and then stained with a goat anti-mouse FITC secondary antibody to allow for quantitative analysis by flow cytometry. For evaluation of cytoplasmic antigens, including Melan-A/MART-1 and gp100, cells were first fixed in paraformaldehyde and permeabilized with saponin as previously described. Staining for cytoplasmic antigens was carried out at room temperature (22° C.).

MUX melanoma cell line = assay: as above; format: cell-based, human; details: MUX
Experimental: as §1, §2, §3, §4, §5

[1] = test system: B16 murine melanoma cell line; assay: Antibody staining and flow cytometry (intracellular gp100, TRP-2; surface Class I with H2kb antibody); format: cell-based, mouse; details: 3 days, 17-AEP 0.5, PU-H71 0.15, CCT018159 2.5 μg/ml
From the text: To further evaluate enhancement of immune recognition of cancer cells by inhibition of Hsp90 function, it was shown that a total of twelve different Hsp90 inhibitors were active in several molecular and cellular assays on a series of cell lines, including eleven human melanomas, the murine B16 melanoma, and two human gliomas. […] The melanomas all express varying levels of differentiation antigens Melan-A/MART-1, gp100 and TRP-2, as well as the MHC-Class I antigen (as evidenced by W6/32 antibody staining) that is required for T cell recognition of the tumor cells. Each of these antigens is enhanced by all of the Hsp90 inhibitors. […] Similar to the human counterparts, the B16 mouse tumor also can be induced to express enhanced antigen levels upon 3-day exposure to each of the Hsp90 inhibitors (Table 16). The mouse H-2 Class I antigen is likewise induced by the Hsp90 inhibitors.
General culture conditions for cell propagation and the origins of most of the melanoma cell lines have been previously described. Melanoma cells were cultured in DMEM with 10% FBS. The glioma cell lines U87 MG and U118 MG were obtained from the American Type Culture Collection (ATCC). The B16 murine melanoma cell line was provided by Dr. Andrew Hurwitz and has been previously described. The T cell receptor (TCR)-negative Jurkat T cell line derivative J.RT3-T3.5 was obtained from ATCC. The construction of the J.RT3-T3.5 cell line expressing a Melan-A/MART-1 specific TCR has been described previously. T cells were cultured in RPMI with 10% FBS. IFN-beta-1a (Avonex) was obtained from Biogen-Idec (Cambridge, Mass.) and reconstituted according to the manufacturer's recommendations. The Hsp90 inhibitor radicicol was purchased from A.G. Scientific (San Diego, Calif.). Novobiocin was ordered from BioMol (Plymouth Meeting, Pa.). 17-DMAG was obtained from LC laboratories (Woburn, Mass.). 17-AEP-AP was purchased from InVivoGen (San Diego, Calif.). […] Gedunin, CCT018159, and celastrol were purchased from Tocris (Ellisville, Mo.). Selleck Chemicals (Houston, Tex.) provided NVP-AUY922 and BIIB021.
Cells were plated at a density of 1×10^5 in 1 ml of medium in a 24-well plate and cultured for varying times as indicated in results. Typically, 3 days of culture in the presence of Hsp90 inhibitors was optimal for the functional studies performed. After incubation, cells were collected by trypsinization and then evaluated by flow cytometry.
as §3

[2] = MU89, 3 days, IFN-beta 5000 Units/ml, 17-AEP 1.0, PU-H71 0.3, CCT018159 10.0 μg/ml
[3] = MU89, three days, IFN-β 5000 Units/ml, IFN-γ 100 ng/ml, PU-H71 0.3 mg/ml
[4] = MU89 cells, Table 20, single agent or simultaneous combination
[5] = 3 days, IFN-beta 5000 Units/ml, 17-AEP 0.5, PU-H71 0.15, CCT018159 2.5 μg/ml
[6] = 3 days, IFN-beta 5000 Units/ml, 17-AEP 1.0, PU-H71 0.3, CCT018159 10.0 μg/ml

Question: With `CC(C)NCCCn1c(Sc2cc3c(cc2I)OCO3)nc2c(N)ncnc21` [PU-H71] as the compound, how does the “Class I, geometric mean of surface staining (W6/32)” value (MU89 melanoma cell line; [2]) read?
Answer: 66

Question: What about the “MART-1, geometric mean of intracellular staining” value (shortened to “MART-1, geometric mean”) (MU89 melanoma cell line; [2]) of the same compound?
Answer: 147

Question: What about the “TRP-2, geometric mean of intracellular staining” value (“TRP-2, geometric mean” below) (MU89 melanoma cell line; [2]) of the same compound?
Answer: 214

Question: And the “gp100, geometric mean of intracellular staining” value (from here on “gp100, geometric mean”) (MU89 melanoma cell line; [2])?
Answer: 381

Question: And the “MHC Class I, geometric mean of surface staining (W6/32)” value (shortened to “MHC Class I, geometric mean”) (MU89 melanoma cell line; MU89, 4 day IFN-β pre-treatment (5000 Units/ml), then 3 days with fresh IFN-β and the labelled HSP90 inhibitor (label IFN-β: no inhibitor), 17-AEP 1, PU-H71 0.3, CCT018159 10 mg/ml)?
Answer: 390

Question: What about the “MHC Class I, geometric mean” value (MU89 melanoma cell line; MU89, 4 day IFN-β pre-treatment (5000 Units/ml), then 3 days without IFN-β with the labelled HSP90 inhibitor (label IFN-β: no inhibitor), 17-AEP 1, PU-H71 0.3, CCT018159 10 mg/ml) of the same compound?
Answer: 307

Question: And the “Class I antigen induction, sequential treatment” value (MU89 melanoma cell line; MU89, IFN-beta pre-treatment, then PU-H71 for 3 days (FIG. 22))?
Answer: synergistically enhanced; also recorded: far exceeded what was achieved with either drug alone

Question: What about the “Class II antigen level, sequential treatment” value (MU89 melanoma cell line; MU89, IFN-gamma for 3 days, subsequently PU-H71 (FIG. 23)) of the same compound?
Answer: significantly greater than that achieved with IFN-gamma alone

Question: What about the “MHC Class I, geometric mean” value (MU89 melanoma cell line; MU89, single agent for 3 days, no IFN-β pre-treatment, IFN-β 5000 Units/ml) of the same compound?
Answer: 75

Question: What about the “MHC Class I, geometric mean” value (MU89 melanoma cell line; MU89, three days, IFN-β 5000 Units/ml) of the same compound?
Answer: 66

Question: And the “MHC Class I, geometric mean” value (MU89 melanoma cell line; [3])?
Answer: 99

Question: And the “MHC Class II, geometric mean of surface staining (L2443)” value (MU89 melanoma cell line; [3])?
Answer: 43

Question: And the “L243 (MHC Class II surface staining)” value (MU89 melanoma cell line; [4])?
Answer: 4.1

Question: And the “W6/32 (MHC Class I surface staining)” value (MU89 melanoma cell line; [4])?
Answer: 72.1

Question: And the “L243 (MHC Class II surface staining)” value (MU89 melanoma cell line; MU89 cells, Table 21, no pre-treatment, treatment as labelled)?
Answer: 5

Question: What about the “L243 (MHC Class II surface staining)” value (MU89 melanoma cell line; MU89 cells, Table 21, pre-treatment IFN-G (3 days), then treatment as labelled) of the same compound?
Answer: 338

Question: And the “L243 (MHC Class II surface staining)” value (MU89 melanoma cell line; MU89 cells, Table 21, substance given as pre-treatment (3 days) only, no subsequent treatment)?
Answer: 2

Question: What about the “Class II induction by IFN-gamma, combination” value (MU89 melanoma cell line; MU-89, Hsp90 inhibitor together with IFN-gamma) of the same compound?
Answer: ablation of the IFN-gamma induction of Class II antigen

Question: What about the “Class I expression, combination” value (MU89 melanoma cell line; MU-89, PU-H71 together with IFN-beta) of the same compound?
Answer: additive effect

Question: What about the “Class I induction by IFN-gamma, combination” value (MU89 melanoma cell line; MU-89, PU-H71 together with IFN-gamma) of the same compound?
Answer: not further enhanced

Question: And the “L243 (MHC Class II surface staining)” value (MU89 melanoma cell line; MU-89, single agent)?
Answer: 4.5

Question: And the “Class I, geometric mean of surface staining (W6/32)” value (A375 melanoma cell line; [5])?
Answer: 71

Question: What about the “MART-1, geometric mean” value (A375 melanoma cell line; [5]) of the same compound?
Answer: 11

Question: And the “TRP-2, geometric mean” value (A375 melanoma cell line; [5])?
Answer: 26

Question: And the “gp100, geometric mean” value (A375 melanoma cell line; [5])?
Answer: 24

Question: And the “MHC Class I, geometric mean” value (A375 melanoma cell line; 4 day IFN-β pre-treatment (5000 Units/ml), then 3 days with fresh IFN-β and the labelled HSP90 inhibitor (label IFN-β: no inhibitor), 17-AEP 0.5, PU-H71 0.15, CCT018159 2.5)?
Answer: 226

Question: And the “MHC Class I, geometric mean” value (A375 melanoma cell line; 4 day IFN-β pre-treatment (5000 Units/ml), then 3 days without IFN-β with the labelled HSP90 inhibitor (label IFN-β: no inhibitor), 17-AEP 0.5, PU-H71 0.15, CCT018159 2.5)?
Answer: 174

Question: What about the “MHC Class I, geometric mean” value (A375 melanoma cell line; single agent for 3 days, no IFN-β pre-treatment, IFN-β 5000 Units/ml, 17-AEP 0.5, PU-H71 […], CCT018159 2.5) of the same compound?
Answer: 131

Question: What about the “MHC Class I, geometric mean” value (A375 melanoma cell line; three days, IFN-β 5000 Units/ml, 17-AEP 0.5, PU-H71 […], CCT018159 2.5) of the same compound?
Answer: 71

Question: And the “Class I, geometric mean of surface staining (W6/32)” value (MUX melanoma cell line; [6])?
Answer: 212

Question: And the “MART-1, geometric mean” value (MUX melanoma cell line; [6])?
Answer: 19

Question: What about the “TRP-2, geometric mean” value (MUX melanoma cell line; [6]) of the same compound?
Answer: 41

Question: What about the “gp100, geometric mean” value (MUX melanoma cell line; [6]) of the same compound?
Answer: 32

Question: And the “MHC Class I, geometric mean” value (MUX melanoma cell line; 4 day IFN-β pre-treatment (5000 Units/ml), then 3 days with fresh IFN-β and the labelled HSP90 inhibitor (label IFN-β: no inhibitor), 17-AEP 1, PU-H71 0.3, CCT018159 10 mg/ml)?
Answer: 579

Question: And the “MHC Class I, geometric mean” value (MUX melanoma cell line; 4 day IFN-β pre-treatment (5000 Units/ml), then 3 days without IFN-β with the labelled HSP90 inhibitor (label IFN-β: no inhibitor), 17-AEP 1, PU-H71 0.3, CCT018159 10 mg/ml)?
Answer: 477

Question: And the “MHC Class I, geometric mean” value (MUX melanoma cell line; single agent for 3 days, no IFN-β pre-treatment, IFN-β 5000 Units/ml, 17-AEP 1 μg/ml, PU-H71 0.3 μg/ml, CCT018159 10 μg/ml)?
Answer: 282

Question: And the “MHC Class I, geometric mean” value (MUX melanoma cell line; three days, IFN-β 5000 Units/ml, 17-AEP 1 μg/ml, PU-H71 0.3 μg/ml, CCT018159 10 μg/ml)?
Answer: 212

Question: And the “Class I, geometric mean of surface staining (H2kb)” value [1]?
Answer: 14

Question: What about the “TRP-2, geometric mean” value [1] of the same compound?
Answer: 360

Question: What about the “gp100, geometric mean” value [1] of the same compound?
Answer: 595
